This is an account of results in US10143719B2, “Inhibitors of valosin-containing protein and methods of use” (CASE WESTERN RESERVE UNIVERSITY, priority 2015, dated 2018).

The structures appear in SMILES notation. Residues, ends and D or L forms follow the SMILES beside them. *: point of attachment. Cbz = O=C(OCc1ccccc1)*

The subject of this experiment is Htt or mtHtt. Description: Htt/mtHtt protein levels after proteasome or VCP inhibitor. Conditions: HdhQ or HdhQ111 cells. It counts as cell-based, mouse. An excerpt:
VCP plays a central role in protein degradation by binding to its substrates.

With `CC1(C)C(N(O)C(=O)Nc2ccc(Cl)cc2)N(c2ccc(Cl)cc2)C(=O)N1CC(=O)N/N=C/C=C/c1ccc([N+](=O)[O-])o1` (centres unmarked) [Eeyarestatin I], the “Htt or mtHtt protein levels” value is given as “did not affect Htt or mtHtt protein levels”.
Turning to `CC(C)C[C@@H](C=O)NC(=O)[C@H](CC(C)C)NC(=O)[C@H](CC(C)C)NC(=O)OCc1ccccc1` [MG132] (Cbz-Leu-Leu-Leu-aldehyde), the “Htt or mtHtt protein levels” value was “did not affect Htt or mtHtt protein levels”.
